# Columns and labels:
# Test in all cases: DiscoverX KinomeScreen kinase selectivity competition binding assay
# [1] = molecular target: T1, panel of ninety-seven kinases (Homo sapiens, UniProt O00750); details: PIK3C2B; read-out: % Ctrl @ 3 μM
# T1 construct: purchased DiscoverX; host or cells: T7 phage in E. coli (BL21-derived) for most kinases; HEK-293 for the rest
# Description: (§1) Atropisomer A-2 has been tested for off-target activity against a panel of ninety-seven kinases distributed across the kinome at a concentration of 3 μM using the DiscoverX KinomeScreen assay. The DiscoverX KinomeScreen assay is a site-directed competition binding assay which measures the binding affinity of a compound to a kinase, by use of a solid supported control compound which can bind or capture the kinases in solution. In the absence of a kinase-inhibitor test compound, all of the kinase will bind to the solid support. If a kinase-inhibitor test compound is added to the assay mix, the amount of kinase binding to the solid support will be reduced, the extent of reduction being dependent on the potency of the test compound as a kinase inhibitor. […] For most assays, kinase-tagged T7 phage strains were grown in parallel in 24-well blocks in an E. coli host derived from the BL21 strain. E. coli were grown to log-phase and infected with T7 phage from a frozen stock (multiplicity of infection=0.4) and incubated with shaking at 32° C. until lysis (90-150 minutes). The lysates were centrifuged (6,000×g) and filtered (0.2 μm) to remove cell debris. The remaining kinases were produced in HEK-293 cells and subsequently tagged with DNA for qPCR detection. Streptavidin-coated magnetic beads were treated with biotinylated small molecule ligands for 30 minutes at room temperature to generate affinity resins for kinase assays. The liganded beads were blocked with excess biotin and washed with blocking buffer (SeaBlock (Pierce), 1% BSA, 0.05% Tween 20, 1 mM DTT) to remove unbound ligand and to reduce non-specific phage binding. […] Test compounds were prepared as 40× stocks in 100% DMSO and directly diluted into the assay. All reactions were performed in polypropylene 384-well plates in a final volume of 0.02 ml. […] The beads were then re-suspended in elution buffer (1×PBS, 0.05% Tween 20, 0.5 μM non-biotinylated affinity ligand) and incubated at room temperature with shaking for 30 minutes. The kinase concentration in the eluates was measured by qPCR. Compounds that bind the kinase active site and directly (sterically) or indirectly (allosterically) prevent kinase binding to the immobilized ligand, will reduce the amount of kinase captured on the solid support. […] The strength of binding of the test molecule to the kinase can be expressed as the percent control (% Ctrl) The compound(s) were screened at 3000 nM concentration, and results for primary screen binding interactions are reported as ‘% Ctrl’, where lower numbers indicate stronger hits in the matrix on the following page(s). [formula] • negative control=DMSO (100% Ctrl) • positive control=control compound (0% Ctrl)
# [2] = molecular target: T2, panel of ninety-seven kinases (Homo sapiens, UniProt O15075); details: DCLK1; read-out: % Ctrl @ 3 μM
# T2 construct: purchased DiscoverX; host or cells: T7 phage in E. coli (BL21-derived) for most kinases; HEK-293 for the rest
# Description: as §1
# [3] = molecular target: T3, panel of ninety-seven kinases (Homo sapiens, UniProt O15530); details: PDPK1; read-out: % Ctrl @ 3 μM
# T3 construct: purchased DiscoverX; host or cells: T7 phage in E. coli (BL21-derived) for most kinases; HEK-293 for the rest
# Description: as §1
# [4] = molecular target: T4, panel of ninety-seven kinases (Homo sapiens, UniProt P07333); details: CSF1R; read-out: % Ctrl @ 3 μM
# T4 construct: purchased DiscoverX; host or cells: T7 phage in E. coli (BL21-derived) for most kinases; HEK-293 for the rest
# Description: as §1
# [5] = molecular target: T5, panel of ninety-seven kinases (Homo sapiens, UniProt P09619); details: PDGFRB; read-out: % Ctrl @ 3 μM
# T5 construct: purchased DiscoverX; host or cells: T7 phage in E. coli (BL21-derived) for most kinases; HEK-293 for the rest
# Description: as §1
# [6] = molecular target: T6, panel of ninety-seven kinases (Homo sapiens, UniProt P31749); details: AKT1; read-out: % Ctrl @ 3 μM
# T6 construct: purchased DiscoverX; host or cells: T7 phage in E. coli (BL21-derived) for most kinases; HEK-293 for the rest
# Description: as §1
# [7] = molecular target: T7, panel of ninety-seven kinases (Homo sapiens, UniProt P48730); details: CSNK1D; read-out: % Ctrl @ 3 μM
# T7 construct: purchased DiscoverX; host or cells: T7 phage in E. coli (BL21-derived) for most kinases; HEK-293 for the rest
# Description: as §1
# [8] = molecular target: T8, panel of ninety-seven kinases (Homo sapiens, UniProt P48736); details: PIK3CG; read-out: % Ctrl @ 3 μM
# T8 construct: purchased DiscoverX; host or cells: T7 phage in E. coli (BL21-derived) for most kinases; HEK-293 for the rest
# Description: as §1
# [9] = molecular target: T9, panel of ninety-seven kinases (Homo sapiens, UniProt P49137); details: MAPKAPK2; read-out: % Ctrl @ 3 μM
# T9 construct: purchased DiscoverX; host or cells: T7 phage in E. coli (BL21-derived) for most kinases; HEK-293 for the rest
# Description: as §1
# [10] = molecular target: T10, panel of ninety-seven kinases (Homo sapiens, UniProt P52333); details: JAK3; read-out: % Ctrl @ 3 μM
# T10 construct: purchased DiscoverX; host or cells: T7 phage in E. coli (BL21-derived) for most kinases; HEK-293 for the rest
# Description: as §1
# [11] = molecular target: T11, panel of ninety-seven kinases (Homo sapiens, UniProt P53779); details: MAPK10; read-out: % Ctrl @ 3 μM
# T11 construct: purchased DiscoverX; host or cells: T7 phage in E. coli (BL21-derived) for most kinases; HEK-293 for the rest
# Description: as §1
# [12] = molecular target: T12, panel of ninety-seven kinases (Homo sapiens, UniProt P78368); details: CSNK1G2; read-out: % Ctrl @ 3 μM
# T12 construct: purchased DiscoverX; host or cells: T7 phage in E. coli (BL21-derived) for most kinases; HEK-293 for the rest
# Description: as §1
# [13] = molecular target: T13, panel of ninety-seven kinases (Homo sapiens, UniProt Q00536); details: CDK16; read-out: % Ctrl @ 3 μM
# T13 construct: purchased DiscoverX; host or cells: T7 phage in E. coli (BL21-derived) for most kinases; HEK-293 for the rest
# Description: as §1
# [14] = molecular target: T14, panel of ninety-seven kinases (Homo sapiens, UniProt Q02156); details: PRKCE; read-out: % Ctrl @ 3 μM
# T14 construct: purchased DiscoverX; host or cells: T7 phage in E. coli (BL21-derived) for most kinases; HEK-293 for the rest
# Description: as §1
# [15] = molecular target: T15, panel of ninety-seven kinases (Homo sapiens, UniProt Q02763); details: TEK; read-out: % Ctrl @ 3 μM
# T15 construct: purchased DiscoverX; host or cells: T7 phage in E. coli (BL21-derived) for most kinases; HEK-293 for the rest
# Description: as §1
# [16] = molecular target: T16, panel of ninety-seven kinases (Homo sapiens, UniProt Q13153); details: PAK1; read-out: % Ctrl @ 3 μM
# T16 construct: purchased DiscoverX; host or cells: T7 phage in E. coli (BL21-derived) for most kinases; HEK-293 for the rest
# Description: as §1
# [17] = molecular target: T17, panel of ninety-seven kinases (Homo sapiens, UniProt Q86V86); details: PIM3; read-out: % Ctrl @ 3 μM
# T17 construct: purchased DiscoverX; host or cells: T7 phage in E. coli (BL21-derived) for most kinases; HEK-293 for the rest
# Description: as §1
# [18] = molecular target: T18, panel of ninety-seven kinases (Homo sapiens, UniProt Q9BUB5); details: MKNK1; read-out: % Ctrl @ 3 μM
# T18 construct: purchased DiscoverX; host or cells: T7 phage in E. coli (BL21-derived) for most kinases; HEK-293 for the rest
# Description: as §1
# [19] = molecular target: T19, panel of ninety-seven kinases (Homo sapiens, UniProt Q9BWU1); details: CDK19; read-out: % Ctrl @ 3 μM
# T19 construct: purchased DiscoverX; host or cells: T7 phage in E. coli (BL21-derived) for most kinases; HEK-293 for the rest
# Description: as §1
# [20] = molecular target: T20, panel of ninety-seven kinases (Homo sapiens, UniProt Q9BXA7); details: TSSK1B; read-out: % Ctrl @ 3 μM
# T20 construct: purchased DiscoverX; host or cells: T7 phage in E. coli (BL21-derived) for most kinases; HEK-293 for the rest
# Description: as §1
# [21] = test system: panel of ninety-seven kinases
# Description: as §1
# T5 sequence (P09619 33-1106): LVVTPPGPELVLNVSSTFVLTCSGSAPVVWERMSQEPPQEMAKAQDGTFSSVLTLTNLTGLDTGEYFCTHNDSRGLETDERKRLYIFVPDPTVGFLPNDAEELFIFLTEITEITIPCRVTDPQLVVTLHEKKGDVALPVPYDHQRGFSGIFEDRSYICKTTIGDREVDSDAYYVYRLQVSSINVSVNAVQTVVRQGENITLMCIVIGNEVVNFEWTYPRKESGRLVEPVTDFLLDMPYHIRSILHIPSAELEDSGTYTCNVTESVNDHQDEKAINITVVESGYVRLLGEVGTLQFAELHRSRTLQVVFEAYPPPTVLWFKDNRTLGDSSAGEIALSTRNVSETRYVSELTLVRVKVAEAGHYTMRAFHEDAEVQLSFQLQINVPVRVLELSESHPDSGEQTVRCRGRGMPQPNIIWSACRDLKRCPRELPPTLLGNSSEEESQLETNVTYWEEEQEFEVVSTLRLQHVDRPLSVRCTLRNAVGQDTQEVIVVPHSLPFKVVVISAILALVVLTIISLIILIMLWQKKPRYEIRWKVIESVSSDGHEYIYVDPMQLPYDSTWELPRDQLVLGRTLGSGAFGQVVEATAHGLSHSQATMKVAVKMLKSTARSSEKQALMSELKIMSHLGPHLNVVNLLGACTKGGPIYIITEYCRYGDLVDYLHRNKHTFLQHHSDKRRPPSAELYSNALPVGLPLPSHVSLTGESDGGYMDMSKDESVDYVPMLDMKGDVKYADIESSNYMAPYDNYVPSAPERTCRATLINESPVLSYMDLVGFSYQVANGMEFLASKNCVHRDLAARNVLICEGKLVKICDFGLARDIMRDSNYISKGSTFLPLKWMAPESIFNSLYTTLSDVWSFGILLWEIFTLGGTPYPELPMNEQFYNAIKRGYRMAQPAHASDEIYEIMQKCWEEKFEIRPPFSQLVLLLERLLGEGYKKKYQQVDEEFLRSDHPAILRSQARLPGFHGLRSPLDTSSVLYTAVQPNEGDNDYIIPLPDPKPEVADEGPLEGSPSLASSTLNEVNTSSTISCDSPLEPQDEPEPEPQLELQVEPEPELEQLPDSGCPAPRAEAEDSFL
# T9 sequence (P49137 whole entry): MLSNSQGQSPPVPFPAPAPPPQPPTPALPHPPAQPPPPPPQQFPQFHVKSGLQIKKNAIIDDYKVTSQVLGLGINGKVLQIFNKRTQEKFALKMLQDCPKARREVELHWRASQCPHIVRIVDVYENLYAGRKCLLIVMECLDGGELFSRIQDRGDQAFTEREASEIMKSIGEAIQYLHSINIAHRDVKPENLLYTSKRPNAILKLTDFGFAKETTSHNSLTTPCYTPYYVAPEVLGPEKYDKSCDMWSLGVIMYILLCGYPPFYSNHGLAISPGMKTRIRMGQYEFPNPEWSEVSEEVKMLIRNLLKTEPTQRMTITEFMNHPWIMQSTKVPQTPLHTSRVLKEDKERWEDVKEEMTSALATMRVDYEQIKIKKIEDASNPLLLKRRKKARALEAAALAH
# T2 sequence (O15075 whole entry): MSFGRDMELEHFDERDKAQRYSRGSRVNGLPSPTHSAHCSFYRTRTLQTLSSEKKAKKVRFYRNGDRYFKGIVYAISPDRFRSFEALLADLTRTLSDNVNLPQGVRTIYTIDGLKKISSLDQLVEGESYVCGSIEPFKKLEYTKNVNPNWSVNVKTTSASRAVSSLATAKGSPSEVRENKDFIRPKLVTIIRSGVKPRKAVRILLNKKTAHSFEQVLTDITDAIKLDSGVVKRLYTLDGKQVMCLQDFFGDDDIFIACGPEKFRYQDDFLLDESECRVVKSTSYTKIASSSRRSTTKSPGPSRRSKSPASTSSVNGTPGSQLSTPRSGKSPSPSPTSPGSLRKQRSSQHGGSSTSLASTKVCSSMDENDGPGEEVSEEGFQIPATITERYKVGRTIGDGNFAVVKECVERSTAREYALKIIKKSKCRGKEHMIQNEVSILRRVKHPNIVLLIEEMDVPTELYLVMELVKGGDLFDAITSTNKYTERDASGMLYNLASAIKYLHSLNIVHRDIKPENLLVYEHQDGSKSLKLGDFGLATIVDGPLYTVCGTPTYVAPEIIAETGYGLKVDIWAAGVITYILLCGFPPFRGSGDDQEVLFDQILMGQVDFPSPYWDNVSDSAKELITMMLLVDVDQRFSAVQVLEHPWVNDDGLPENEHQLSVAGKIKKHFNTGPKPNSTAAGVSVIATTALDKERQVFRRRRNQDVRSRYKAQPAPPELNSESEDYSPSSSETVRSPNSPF
# T10 sequence (P52333 whole entry): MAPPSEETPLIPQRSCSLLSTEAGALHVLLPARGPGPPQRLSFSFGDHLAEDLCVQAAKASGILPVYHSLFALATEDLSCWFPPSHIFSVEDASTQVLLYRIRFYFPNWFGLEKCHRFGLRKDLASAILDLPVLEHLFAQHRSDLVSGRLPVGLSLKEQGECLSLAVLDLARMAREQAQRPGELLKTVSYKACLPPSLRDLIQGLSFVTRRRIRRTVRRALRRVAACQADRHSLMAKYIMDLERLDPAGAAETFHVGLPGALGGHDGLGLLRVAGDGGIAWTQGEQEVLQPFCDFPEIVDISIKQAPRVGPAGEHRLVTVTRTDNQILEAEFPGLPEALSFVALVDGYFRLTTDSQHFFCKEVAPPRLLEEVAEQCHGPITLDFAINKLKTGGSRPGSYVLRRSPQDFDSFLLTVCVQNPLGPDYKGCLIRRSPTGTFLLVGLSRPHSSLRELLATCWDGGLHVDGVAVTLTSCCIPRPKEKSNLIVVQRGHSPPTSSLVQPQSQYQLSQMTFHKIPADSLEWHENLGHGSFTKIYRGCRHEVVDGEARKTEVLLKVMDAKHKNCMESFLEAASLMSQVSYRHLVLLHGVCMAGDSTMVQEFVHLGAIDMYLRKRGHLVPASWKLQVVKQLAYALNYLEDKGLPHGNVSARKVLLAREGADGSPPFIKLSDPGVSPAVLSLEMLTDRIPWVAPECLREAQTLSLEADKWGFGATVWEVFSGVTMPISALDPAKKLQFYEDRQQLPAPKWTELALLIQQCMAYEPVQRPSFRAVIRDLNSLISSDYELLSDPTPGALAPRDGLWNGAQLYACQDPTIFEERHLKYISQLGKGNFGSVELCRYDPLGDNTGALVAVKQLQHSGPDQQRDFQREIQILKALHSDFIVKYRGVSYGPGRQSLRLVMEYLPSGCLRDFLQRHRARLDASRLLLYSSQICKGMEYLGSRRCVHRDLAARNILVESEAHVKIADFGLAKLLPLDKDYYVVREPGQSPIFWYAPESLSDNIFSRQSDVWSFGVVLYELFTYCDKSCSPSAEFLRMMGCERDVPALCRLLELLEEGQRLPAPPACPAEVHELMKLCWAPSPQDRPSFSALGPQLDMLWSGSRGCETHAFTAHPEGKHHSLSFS
# T12 sequence (P78368 whole entry): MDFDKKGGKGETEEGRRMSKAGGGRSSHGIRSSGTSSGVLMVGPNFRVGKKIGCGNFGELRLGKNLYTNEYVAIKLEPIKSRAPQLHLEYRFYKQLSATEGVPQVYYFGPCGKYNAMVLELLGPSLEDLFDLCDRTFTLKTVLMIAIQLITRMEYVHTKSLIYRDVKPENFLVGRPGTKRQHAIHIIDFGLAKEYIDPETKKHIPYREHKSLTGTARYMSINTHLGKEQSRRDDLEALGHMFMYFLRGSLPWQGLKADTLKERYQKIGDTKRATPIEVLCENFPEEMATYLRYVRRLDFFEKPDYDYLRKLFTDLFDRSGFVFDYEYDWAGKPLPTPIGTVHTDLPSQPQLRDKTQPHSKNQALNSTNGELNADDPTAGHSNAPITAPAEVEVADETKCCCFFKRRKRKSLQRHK
# T6 sequence (P31749 whole entry): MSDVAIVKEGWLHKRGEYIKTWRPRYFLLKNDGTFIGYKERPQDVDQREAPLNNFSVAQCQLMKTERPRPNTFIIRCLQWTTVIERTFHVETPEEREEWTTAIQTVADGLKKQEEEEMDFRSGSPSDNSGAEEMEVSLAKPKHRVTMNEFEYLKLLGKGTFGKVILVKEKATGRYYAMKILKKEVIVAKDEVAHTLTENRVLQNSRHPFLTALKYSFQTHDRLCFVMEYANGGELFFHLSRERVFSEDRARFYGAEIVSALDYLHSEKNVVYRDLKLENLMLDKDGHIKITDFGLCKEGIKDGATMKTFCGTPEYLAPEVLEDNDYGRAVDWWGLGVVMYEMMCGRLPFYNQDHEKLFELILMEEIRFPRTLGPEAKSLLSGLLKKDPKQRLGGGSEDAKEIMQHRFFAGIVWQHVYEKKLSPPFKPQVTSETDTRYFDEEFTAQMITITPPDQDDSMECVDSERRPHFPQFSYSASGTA
# T14 sequence (Q02156 whole entry): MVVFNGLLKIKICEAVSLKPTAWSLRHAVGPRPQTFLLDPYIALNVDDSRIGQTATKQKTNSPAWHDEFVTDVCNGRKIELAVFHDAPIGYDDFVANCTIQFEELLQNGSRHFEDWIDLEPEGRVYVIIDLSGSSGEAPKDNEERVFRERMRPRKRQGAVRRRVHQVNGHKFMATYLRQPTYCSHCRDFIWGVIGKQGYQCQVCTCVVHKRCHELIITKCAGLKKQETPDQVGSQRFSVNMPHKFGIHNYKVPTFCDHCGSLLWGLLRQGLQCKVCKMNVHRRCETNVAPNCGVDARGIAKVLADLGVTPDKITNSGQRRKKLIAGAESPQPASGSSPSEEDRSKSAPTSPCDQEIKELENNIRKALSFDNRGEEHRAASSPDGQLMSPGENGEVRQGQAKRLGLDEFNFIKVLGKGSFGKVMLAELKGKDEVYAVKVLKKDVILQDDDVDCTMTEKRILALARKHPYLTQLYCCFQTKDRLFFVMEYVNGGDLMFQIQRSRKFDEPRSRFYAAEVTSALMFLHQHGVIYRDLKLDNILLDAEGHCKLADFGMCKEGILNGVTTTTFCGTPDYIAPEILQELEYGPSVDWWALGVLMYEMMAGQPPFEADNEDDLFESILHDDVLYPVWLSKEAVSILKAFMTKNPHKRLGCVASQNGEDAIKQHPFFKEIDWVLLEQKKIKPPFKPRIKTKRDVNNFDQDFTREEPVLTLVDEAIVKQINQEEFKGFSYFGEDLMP
compound,measurement,setting,value
"CN(C)CCNC(=O)c1ccc(-c2ccc(-c3ccc(Cl)cc3)n2-c2ccccc2C(F)(F)F)cc1 (single isomer, unassigned) [Atropisomer A-2, 4-[5-(4-chlorophenyl)-1-[2-(trifluoromethyl)phenyl]pyrrol-2-yl]-N-[2-(dimethylamino)ethyl]benzamide]",percent of control kinase binding to immobilized ligand at 3 µM,[1],100%
same,percent of control kinase binding to immobilized ligand at 3 µM,[2],87%
same,percent of control kinase binding to immobilized ligand at 3 µM,[3],96%
same,percent of control kinase binding to immobilized ligand at 3 µM,[4],100%
same,percent of control kinase binding to immobilized ligand at 3 µM,[5],100%
same,percent of control kinase binding to immobilized ligand at 3 µM,[6],98%
same,percent of control kinase binding to immobilized ligand at 3 µM,[7],91%
same,percent of control kinase binding to immobilized ligand at 3 µM,[8],100%
same,percent of control kinase binding to immobilized ligand at 3 µM,[9],75%
same,percent of control kinase binding to immobilized ligand at 3 µM,[10],100%
same,percent of control kinase binding to immobilized ligand at 3 µM,[11],93%
same,percent of control kinase binding to immobilized ligand at 3 µM,[12],100%
same,percent of control kinase binding to immobilized ligand at 3 µM,[13],100%
same,percent of control kinase binding to immobilized ligand at 3 µM,[14],99%
same,percent of control kinase binding to immobilized ligand at 3 µM,[15],99%
same,percent of control kinase binding to immobilized ligand at 3 µM,[16],87%
same,percent of control kinase binding to immobilized ligand at 3 µM,[17],98%
same,percent of control kinase binding to immobilized ligand at 3 µM,[18],92%
same,percent of control kinase binding to immobilized ligand at 3 µM,[19],81%
same,percent of control kinase binding to immobilized ligand at 3 µM,[20],100%
same,% Ctrl @ 3 μM,[21]; EGFR (variants not told apart),100%
same,% Ctrl @ 3 μM,"[21]; KIT (three lines, variants not told apart)",100%
same,binding activity against panel kinases (in words),"[21]; ninety-seven kinases, 3 μM",poor or non-existent binding activity
